Assay results taken from EP2229935A1, “Peptide derivatives or pharmaceutically acceptable salts thereof, method for producing the same, use of said derivatives and pharmaceutical composition” (Nebolsin, Vladimir Evgenievich, priority 1997, dated 1999).
Values joined by “and” are separate entries in the source; they are usually repeats but may differ in a detail not shown here. Identical values can stand only once. Marks after values point to notes of the source that are not given here.

Legend:
[1] = tested on: hepatic P-450 cytochrome system; assay: Hexenal sleep duration in mice; format: in vivo
How it was run: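 Male mice (several inbred/hybrid lines, 18-20 g, n=10) and mongrel male guinea pigs (250-300 g, n=24) given compounds orally in drinking water for three days at 50 and 500 µg/kg. Hexenal given 24 h after last dose ([…]); sleep duration recorded in minutes.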

Salmonella spp. = assay: Resistance of mice to Salmonella spp. infection; format: in vivo; conditions: test compounds 500 µg/kg orally; for MLT: mean lifetime
Protocol: Effect of the compounds of general formula (I) on change in average lifetime of experimental animals infected with Salmonella spp.
Experiments were carried out on mongrel white mice of both sexes weighing 18-22 g. Compounds III, XLIV and the reference drug sodium nucleinate were administered orally for 3 days (a total of 6 times) prior and post infection (dosage regimen -3, -2, -1, 0, 1, 2, 3, where 0 is infection day). A 24-hour Salmonella spp. culture grown on Hottinger agar, was used for infecting. Normal saline solution was used to prepare cellular suspension. Suspension of Salmonella spp. cells was administered subcutaneously at a dose 5 x 10^8 cells per a mouse in 0.5 ml.

peritoneal macrophages = assay: Activity of peritoneal macrophages (NBT reduction test); format: in vivo, mongrel white male mice; conditions: for portion of active macrophages: mice, oral three days at 50 and 500 µg/kg
Protocol: Change in the activity of peritoneal macrophages (PM) as effected by the test compounds was studied.
Experiments were carried out on mongrel white male mice with initial body mass 20-22 g. Each group included 10 animals. Compounds III, VI, XLIV were dissolved in normal saline (NS). The test compounds were administered to animals orally for three days at doses 50 and 500 µg/kg. Animals of the control group were given equal volume of NS. Mice were sacrified 20 hours after the last compound administration, peritoneal cavity was washed with 1.5 ml Henks solution comprising 5 U/ml heparine. 0.1 ml of wash solution were incubated for 30 minutes at 37°C with 0.1 ml 0.2% nitroblue tetrasolium (NBT) solution, then smears were prepared. Nuclei were additionaly stained with o.1% neutral red solution. Results were expressed in percent of active cells [Klimov V.V., Kolovkina T.V. Nitroblue tetrasolium reduction test stimulated with pyrogenal. Laborotornoye delo (Laboratory matter) (1982), No 10, pp. 624-625]. […]

mongrel male mice = assay: Average lifetime of mice in a closed volume (hypoxia); format: in vivo
Protocol: The tests of determining average lifetime of animals in a closed volume and on the model of acute hypobaric hypoxia at the minimum atmospheric rarefaction (170-185 mm Hg) were used to study antihypoxic activity of the compunds of general formula (I).
Mice were one by one placed into sealed glass jars and their lifetime was recorded.
The experiment was carried out on 90 mongrel male mice having initial body mass 20 ± 0,5 g housed in cages by 10 animals and given a standard vivarium ration. Average lifetime of mice in closed vessels having volume 250 ml was preliminarily determined and it was 22 to 25 minutes. All the groups included 10 animals each.
Experimental protocol: • a) - preliminary hypoxia for 12 minutes; • b) - first administration of a compound immediately following preliminary hypoxia; • c) - second administration of a compound in 24 hours after the first one, then daily for three days; • d) - recording lifetime of animals under hypoxic conditions in a sealed space 2 hours after the last administration of a compound.
The test compounds were dissolved in distilled water and orally administered to animals for 5 days.
Experimental groups: • Group 1 -(control) - without preliminary hipoxia with oral administration of distilled water for 5 days; • Groups 2 and 3 - administration of the compound XLIV using two doses 50 and 500 µg respectively; • Group 4 - oral administration of sodium oxybutyrate at a dose […] 2 hours before hypoxia; • Group 5 -(control)- with preliminary hypoxia for 12 minutes with subsequent administration of distilled water for 5 days; • Groups 6 and 7 - administration of the compound XLIV using two doses 50 and 500 µg respectively; • Groups 8 and 9 - administration of the compound III using two doses 50 and 500 µg respectively.

[2] = tested on: Lewis pulmonary carcinoma (LLC); assay: Lewis pulmonary carcinoma spontaneous metastasizing, oral administration; format: in vivo; conditions: BDF1 female mice with LLC, oral 24 days; for Mean number of metastases: day 25
Protocol: Each group included 15 animals. 0.3 ml of LLC tumor tissue suspension was intramuscularly injected to mice. Henks solution was used as a solvent. […] Moscow (1992) 13 pp.]. […]

hydroxyl radical = assay: Hydroxyl radical formation in the Fenton reagent (chemiluminescence); format: biochemical
Protocol: Active oxygen forms (AOF) of different nature were generated in the following systems: • A. Hydroxyl radical - in the mixture of FeSO4 with H2O2 (the Fenton reagent) [Halliwell B. Superoxide-dependent formation of hydroxyl radicals in the presence of iron salts. […] Incubation medium comprised 5 mM KH2PO4 (pH 7.4); 5 mM FeSO4; 2 mM luminol. H2O2 at final concentration 5 mM was introduced into a cuvette through a dispencer following background luminescence recording of the reagents' mixture. 5 to 10 ml of the test compounds dissolved in water were at needed concentration introduced into a cuvette.
CL flash recording duration after mixing ingredients, depended on a particular process kinetics. For each system, CL light sum (mV) was determined in the control samples without preparations (I-) and in samples comprising respective concentrations of preparations (I+). To estimate CL inhibition (activation) degree, the I+/I- ratio (in relative units) was found in the studied systems.
When H2O2 was introduced into phosphate buffer comprising iron sulfate, CL flash occured which was caused by formation of predominantly hydroxyl radical in the reaction mixture.

[3] = Day 1 following infection, regimen -3..3
[4] = score 0 (no formazane inclusions, inactive PM), 50 µg/kg orally for three days
[5] = score 0 (no formazane inclusions, inactive PM), 500 µg/kg orally for three days
[6] = score 1 (single formazane inclusions), 50 µg/kg orally for three days
[7] = score 1 (single formazane inclusions), 500 µg/kg orally for three days
[8] = score 2 (inclusions fill up to 1/3 of PM cytoplasm), 50 µg/kg orally for three days
[9] = score 2 (inclusions fill up to 1/3 of PM cytoplasm), 500 µg/kg orally for three days
[10] = score 3 (inclusions fill up to 1/2 of PM cytoplasm), 50 µg/kg orally for three days
[11] = score 3 (inclusions fill up to 1/2 of PM cytoplasm), 500 µg/kg orally for three days
[12] = with preliminary hypoxia 12 minutes, oral 5 days, 0,05 mg/kg
[13] = with preliminary hypoxia 12 minutes, oral 5 days, 0,50 mg/kg
[14] = 1 µM, control of the series as in the table
[15] = 0.01 mM, control of the series as in the table
[16] = 0.1 mM, control of the series as in the table
[17] = 1 mM, control of the series 7839 ± 171, 1120 ± 163, 4974 ± 283 or 1332 ± 172

Compound	Number of dead mice (Salmonella spp.; [3])	Number of dead mice (Salmonella spp.; Day 3 following infection)	Number of dead mice (Salmonella spp.; Day 5 following infection)	Number of dead mice (Salmonella spp.; Day 6 following infection)	Number of dead mice (Salmonella spp.; Day 7 following infection)	MLT (Salmonella spp.) [days]	portion of active macrophages (peritoneal macrophages)	Activity of macrophages, percent (peritoneal macrophages; [4]) [%]	Activity of macrophages, percent (peritoneal macrophages; [5]) [%]	Activity of macrophages, percent (peritoneal macrophages; [6]) [%]	Activity of macrophages, percent (peritoneal macrophages; [7]) [%]	Activity of macrophages, percent (peritoneal macrophages; [8]) [%]	Activity of macrophages, percent (peritoneal macrophages; [9]) [%]	Activity of macrophages, percent (peritoneal macrophages; [10]) [%]	Activity of macrophages, percent (peritoneal macrophages; [11]) [%]	Lifetime (seconds) (mongrel male mice; [12])	Lifetime (seconds) (mongrel male mice; [13])	Mean number of metastases ([2]; 50 µg/kg)	Mean number of metastases ([2]; 500 µg/kg)	Metastasizing inhibition percent ([2]; 50 µg/kg) [%]	also measured
γ-L-glutamylhistamine [compound XLIV]	3*^2	1	5	2	1	4.0 ± 0.73	more pronounced at a dose 500 µg/kg	23.9 ± 4.4	17.4 ± 2.5	37.3 ± 3.4	37.3 ± 3.9	34.9 ± 5.9	35.8 ± 4.4	5.4 ± 2.0	9.4 ± 2.9	1415,5±47,2 seconds	1844,8±93,2*^5 seconds	42.4 ± 4.5	31.9 ± 3.8*^2	10.0	Hexenal sleep duration ([1]; BALB/c*h75 mice, oral 3 days, 50 µg/kg, control 29.16 ± 5.68): 26.50 ± 3.49 min; Hexenal sleep duration (minutes) ([1]; BALB/c*h75 mice, oral 3 days, 500 µg/kg, control 29.16 ± 5.68): 16.72 ± 1.27*** minutes; Hexenal sleep duration (minutes) ([1]; BDF1 mice, oral 3 days, 500 µg/kg, control 23.78 ± 0.78): 20.33 ± 0.59* minutes; Hexenal sleep duration (minutes) ([1]; mouse, in vivo, po): 17.98 ± 1.66* minutes and 16.13 ± 1.86** minutes; Lifetime (seconds) (mongrel male mice; without preliminary hypoxia, oral 5 days, 0,05 mg/kg): 2110,6±123,6**^1 seconds; Lifetime (seconds) (mongrel male mice; without preliminary hypoxia, oral 5 days, 0,50 mg/kg): 1742,8±68,1*^1 seconds; Metastasizing inhibition percent ([2]; 500 µg/kg): 32.0%; relative effect: I+/I- (hydroxyl radical; 1 µM): 1.0; Chemiluminiscence intensity (mV) + σn-1 (hydroxyl radical; [14]): 7747 ± 259 mV; relative effect: I+/I- (hydroxyl radical; 0.01 mM): 0.83; Chemiluminiscence intensity (mV) + σn-1 (hydroxyl radical; [15]): 6444 ± 267 mV; relative effect: I+/I- (hydroxyl radical; 0.1 mM): 0.59; Chemiluminiscence intensity (mV) + σn-1 (hydroxyl radical; [16]): 4625 ± 393 mV; relative effect: I+/I- (hydroxyl radical; 1 mM): 0.28 (*); Chemiluminiscence intensity (mV) + σn-1 (hydroxyl radical; [17]): 2197 ± 311 mV
O=C(O)CCCC(=O)NCCc1c[nH]cn1 [compound III, N-GLUTARYLHISTAMINE]	1	1	1	2	2	4.5 ± 0.65	pronounced in study of the both substance doses	11.6 ± 2.8	12.8 ± 1.3	27.5 ± 2.5	31.3 ± 2.3	44.6 ± 1.9	46.0 ± 2.6	15.8 ± 3.3	10.9 ± 2.1	1670,6±25,3*^5 seconds	1532,6±96,0 seconds	38.5 ±6.3**^1	30.1 ± 2.7**^1	26.0	Hexenal sleep duration (minutes) ([1]; CBF1 mice, oral 3 days, 50 µg/kg, control 25.91 ± 1.57): 19.61 ± 2.69** minutes; Hexenal sleep duration (minutes) ([1]; CBF1 mice, oral 3 days, 500 µg/kg, control 25.91 ± 1.57): 22.02 ± 1.45 * minutes; Number of dead mice (Salmonella spp.; Day 2 following infection): 1*^1; Number of dead mice (Salmonella spp.; Day 4 following infection): 2; Metastasizing inhibition percent ([2]; 500 µg/kg): 42.0%; relative effect: I+/I- (hydroxyl radical; 1 µM): 0.98; Chemiluminiscence intensity (mV) + σn-1 (hydroxyl radical; [14]): 1100 ± 84 mV; relative effect: I+/I- (hydroxyl radical; 0.01 mM): 0.87; Chemiluminiscence intensity (mV) + σn-1 (hydroxyl radical; [15]): 972 ± 79 mV; relative effect: I+/I- (hydroxyl radical; 0.1 mM): 0.64; Chemiluminiscence intensity (mV) + σn-1 (hydroxyl radical; [16]): 719 ± 71 mV; relative effect: I+/I- (hydroxyl radical; 1 mM): 0.15; Chemiluminiscence intensity (mV) + σn-1 (hydroxyl radical; [17]): 164 ± 14 mV
